Assay results published in patent US11052154B2, “Ras protein degradation inducing molecule and pharmaceutical composition” (Tokyo University of Science Foundation, priority 2016, dated 2021).

Legend:
[1] = Body weight change and general condition of mice with subcutaneously implanted SW1990 cells; type: in vivo, mouse; settings: oral 80 mg/kg once every 3 days, 7 doses
Method: To the subcutis of T-cell deficient mice (BALB/cAJcl-nu/nu, 4 weeks old, female) (CLEA Japan, Inc.), 0.1 mL of cell suspension in which SW1990 cells were suspended in PBS so as to be 1×10^7 cells/mL was implanted using a 26-gauge injection needle (TERUMO CORPORATION).
Immediately before administration, TUS-007 was dissolved in DMSO, 0.5 mass % carboxymethyl cellulose (Code No. 039-01335, Wako Pure Chemical Industries, Ltd.) solution was added so that the concentration of DMSO became 2.5 vol %, followed by pulverization by ultrasonic treatment to prepare a suspension of TUS-007. When the tumors of mice with subcutaneously implanted SW1990 cells grew to a size of approximately 100 mm^3, the prepared TUS-007 suspension was orally administered by gavage with a gastric tube (Code No. 5202K, Fuchigami Kikai) at a dose of 80 mg/kg body weight once every 3 days for a total of 7 doses (n=6 to 9). As a control (Vehicle), 0.5 mass % carboxymethyl cellulose solution containing 2.5 vol % DMSO was administered in the same manner.

[2] = target: T1, endogenous wild-type K-Ras protein (Mus musculus, UniProt P32883); experiment: Degradation of endogenous wild-type K-Ras protein in mouse pancreas and colorectal tissue, Western blot analysis; type: in vivo; settings: C57BL/6J mice, intraperitoneal, 48 hours, FIG. 8
T1 construct: an endogenous wild-type K-Ras protein and wild-type H-Ras protein; from tissue; host or cells: mouse pancreas and colon
Method: In Example 9, in a mouse individual to which TUS-007 had been administered, the degradation (knockdown) of an endogenous wild-type K-Ras protein and wild-type H-Ras protein was evaluated by Western blot analysis.
TUS-007 was dissolved in DMSO, and then dissolved in corn oil so that the concentration of DMSO was 10 vol %, and then intraperitoneally administered to C57BL/6J wild-type mice (8 to 9 weeks old, male) (CLEA Japan, Inc.) in an amount of 40 mg/kg body weight or 80 mg/kg body weight (n=3 to 4). Furthermore, in addition to a group in which TUS-007 was administered, a group in which Ras-SOS had been administered in a dose of 80 mg/kg body weight was prepared. As a control, an injection carrier (corn oil containing 10 vol % DMSO) was used. The mice were kept under an environment of ad libitum access to food and water. The mice were dissected under deep anesthesia 48 hours after administration. The pancreas and colon were excised, and flash frozen in liquid nitrogen.
The frozen pancreas and colon were each triturated, and then TKM tissue lysis buffer (50 mM triethanolamine (pH 7.8), 50 mM KCl, 5 mM MgCl2, 0.25 M sucrose, 1 mM PMSF, Protein Inhibitors Cocktail-EDTA free (Nacalai Tesque, Inc.), 1 mM DTT, and a recombinant RNase inhibitor (0.2 U/μL, Takara Bio) were added, and subjected to centrifugation (at 13800 rpm×30 minutes, 4° C.), and the supernatants (pancreatic tissue extract and colorectal tissue extract) were collected. The concentration of the extracted proteins was quantified with a spectrophotometer.
Each tissue extract collected was subjected to Western blot analysis. […]
After electrophoresis, proteins were transferred to a PVDF membrane (Immobion™-P, Millipore) under conditions of 200 mA and 90 minutes using a tank-type blotting device and a transfer buffer (25 mM Tris-HCl, 195 mM glycine, 0.01% SDS, 15% methanol). […] Subsequently, the membrane was treated with a chemiluminescence reagent Immobilon™ Western (Millipore), and then chemiluminescence was detected using a lumino image analyzer LAS-3000 (FUJIFILM Corporation).

T1 sequence (P32883 whole entry): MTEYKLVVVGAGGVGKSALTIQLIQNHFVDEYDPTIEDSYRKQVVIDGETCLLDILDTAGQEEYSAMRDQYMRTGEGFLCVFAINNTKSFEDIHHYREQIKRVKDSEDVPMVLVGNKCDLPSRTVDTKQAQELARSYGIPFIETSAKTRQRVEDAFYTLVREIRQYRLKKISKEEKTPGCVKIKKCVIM

CCC(C)[C@H](NC(=O)CCCCCCNC(=O)[C@H](CC(C)C)NC(=O)CNC(=O)c1cc(Cl)ccc1Cl)C(=O)Nc1ccc2[nH]c(Cc3c[nH]c4ccccc34)nc2c1 (stereo in doubt) [TUS-007]
general condition of the mice [1]: no abnormality in the general condition of the mice
body weight changes ([1]; vs Vehicle, FIG. 9B): no significant differences in body weight changes
amount of the endogenous wild-type K-Ras protein in the pancreatic tissue (Western blot) ([2]; 40 or 80 mg/kg, pancreatic tissue): remarkably reduced in the pancreatic tissue
amount of the endogenous wild-type K-Ras protein in mouse tissues (Western blot) ([2]; TUS-007 40 or 80 mg/kg, Ras-SOS 80 mg/kg, pancreas and colon): reduced in a concentration-dependent manner
